Results taken from patent US20240285679A1, “COMPOSITIONS AND METHODS FOR VISION IMPROVEMENT” (Azura Ophthalmics Ltd., priority 2021, published 2024).

System: Patients with vision loss
Test: Clinical evaluation of vision improvement (OSDI vision assessment)
Type: in vivo
Settings: for course of OSDI vision improvement over the follow-up: follow-up at two weeks, one month, six weeks and 3 months; for vision, change from baseline as assessed by the OSDI vision assessment: twice a week on the lower eyelid of both eyes, FIGS. 2A-2C
Method: Patients with vision loss were treated with control (N=26) or a drug formulation comprising 0.1% selenium disulfide (n=9), 0.5% selenium disulfide (n=26), or 1% selenium disulfide (n=34). Treatment consisted of twice a week application of the drug product on the lower eyelid of both eyes. Patients were followed up and their vision was assessed with an Ocular Surface Disease Index (OSDI) vision assessment after two weeks, one month, six weeks, and 3 months.

For selenium disulfide, the “course of OSDI vision improvement over the follow-up” value (0.5% selenium disulfide) was “continued improvement from 2 weeks to three months”, the “course of OSDI vision improvement over the follow-up” value (1% selenium disulfide) was “continued improvement from 2 weeks to three months” and the “vision, change from baseline as assessed by the OSDI vision assessment” value (drug formulation comprising 0.5% selenium disulfide) was “improvement in vision”. For the same substance, the “vision, change from baseline as assessed by the OSDI vision assessment” value (drug formulation comprising 1% selenium disulfide) was “improvement in vision”.
